Usually IC50 stands for the concentration that gives 50% inhibition.

The target of test [1] is T1, CYP4F3A (Homo sapiens, UniProt Q08477).
T1 sequence (Q08477 1-520): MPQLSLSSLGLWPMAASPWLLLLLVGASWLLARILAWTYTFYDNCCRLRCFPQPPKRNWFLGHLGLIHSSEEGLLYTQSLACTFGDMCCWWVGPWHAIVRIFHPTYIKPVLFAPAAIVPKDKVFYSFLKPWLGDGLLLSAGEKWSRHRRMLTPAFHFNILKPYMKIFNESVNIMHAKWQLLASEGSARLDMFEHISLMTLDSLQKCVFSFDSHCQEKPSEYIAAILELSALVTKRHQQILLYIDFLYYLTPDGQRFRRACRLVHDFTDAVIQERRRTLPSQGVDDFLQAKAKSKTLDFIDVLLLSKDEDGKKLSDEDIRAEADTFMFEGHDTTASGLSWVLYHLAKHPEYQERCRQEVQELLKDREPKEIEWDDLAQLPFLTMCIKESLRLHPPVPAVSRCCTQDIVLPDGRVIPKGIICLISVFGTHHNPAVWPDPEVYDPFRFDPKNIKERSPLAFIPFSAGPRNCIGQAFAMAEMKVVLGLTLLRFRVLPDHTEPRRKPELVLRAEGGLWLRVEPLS
Set-up: gene CYP4F3.

Test [2] has as its target T1, CYP4F3A. Nature of the test: recombinant CYP4F3A LTB4 omega-oxidation assay, HPLC; Michaelis-Menten and Lineweaver-Burk kinetics. The format is biochemical. Set-up: gene CYP4F3; human recombinant CYP4F3A.

Structures are written as SMILES.

In the case of `CCCCC/C=C\C[C@@H](O)/C=C/C=C/C=C\[C@@H](O)CCCC(=O)O` [LTB4], at CYP4F3A [1], the “omega-oxidation of LTB4 (1-20 uM) by recombinant CYP4F3A, HPLC, Michaelis-Menten” value is “Human recombinant CYP4F3A was incubated with increasing concentrations of PF-4708671 before the addition of LTB4 at different concentrations”. For `CCc1cncnc1N1CCN(Cc2nc3cc(C(F)(F)F)ccc3[nH]2)CC1` [PF-4708671], on CYP4F3A [2], the IC50 is ~750 nM.

These data come from paper PMC5222342, “Leukotriene B₄ Metabolism and p70S6 Kinase 1 Inhibitors: PF-4708671 but Not LY2584702 Inhibits CYP4F3A and the ω-Oxidation of Leukotriene B₄ In Vitro and In Cellulo” (PLoS ONE, 2017).
